Reference: paper PMC9045272, “Quorum-Sensing Master Regulator VfmE Is a c-di-GMP Effector That Controls Pectate Lyase Production in the Phytopathogen Dickeya dadantii” (Microbiology Spectrum, 2022)

Experiments:
VfmE = target: T1, VfmE (Dickeya dadantii, UniProt E0SMH0); experiment: ELISA with biotinylated c-di-GMP, competed by unlabelled c-di-GMP; type: binding; conditions: labelled compound (25 nM biotinylated c-di-GMP, Biolog); competition with 10 uL of 250 nM unlabelled c-di-GMP; PBS pH 7.4, room temperature; plate coated with lysate protein
T1 construct: full length, N-terminal 6xHis-MBP fusion (pMAL-c6T) kept, expressed in E. coli NEBExpress, soluble lysate coated on plate

YcgR from D. dadantii = target: T2, YcgR from D. dadantii (Dickeya dadantii, UniProt E0SAQ7); experiment: as above; type: binding; conditions: labelled compound (25 nM biotinylated c-di-GMP, Biolog); competition with 10 uL of 250 nM unlabelled c-di-GMP; PBS pH 7.4, room temperature; plate coated with lysate protein; positive control protein
T2 construct: 6xHis-tagged, recombinant, soluble lysate coated on plate
T2 sequence (E0SAQ7 entry or part of it): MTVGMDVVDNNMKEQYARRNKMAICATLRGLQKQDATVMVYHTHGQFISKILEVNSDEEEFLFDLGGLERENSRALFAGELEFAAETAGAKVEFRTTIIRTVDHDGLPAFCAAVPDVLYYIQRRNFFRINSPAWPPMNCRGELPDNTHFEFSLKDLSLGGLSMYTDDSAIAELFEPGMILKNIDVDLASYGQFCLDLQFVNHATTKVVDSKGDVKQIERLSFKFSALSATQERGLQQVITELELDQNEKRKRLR

T1 sequence (E0SMH0 entry or part of it): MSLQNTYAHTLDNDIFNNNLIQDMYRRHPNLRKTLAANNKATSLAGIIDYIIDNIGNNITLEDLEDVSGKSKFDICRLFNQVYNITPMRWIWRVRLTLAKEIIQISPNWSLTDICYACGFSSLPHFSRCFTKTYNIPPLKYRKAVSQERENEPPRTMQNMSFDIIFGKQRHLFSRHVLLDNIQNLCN

Compound: Nc1nc2c(ncn2[C@@H]2O[C@@H]3COP(=O)(O)O[C@H]4[C@@H](O)[C@H](n5cnc6c(=O)[nH]c(N)nc65)O[C@@H]4COP(=O)(O)O[C@H]3[C@H]2O)c(=O)[nH]1 [c-di-GMP]
- ELISA with biotinylated c-di-GMP, competed by unlabelled c-di-GMP (VfmE): VfmE binds c-di-GMP with specificity comparable to that of a known c-di-GMP effector, YcgR
- ELISA with biotinylated c-di-GMP, competed by unlabelled c-di-GMP (YcgR from D. dadantii): We observed a reduced absorbance in both VfmE- and YcgR-treated wells
